Values quoted from earlier work as cited in patent publication US7781642B2, “Animal model having a chimeric human liver and susceptible to human hepatitis C virus infection” (KMT Hepatech, Inc., priority 2000, dated 2010).

Tests used:
[1] = test system: HCV; conditions: HCV patients; cited from earlier work
[2] = test system: HBV; conditions: post needle-stick exposure; cited from earlier work

Q: With interferon and ribavirin as the substance, how does the Sustained response rate [1] read?
A: Its Sustained response rate is “up to 40%”.

Q: With Hepatitis B Immunoglobulin [HBIg] as the substance, how does the “Cases in which transmission of HBV was prevented” value [2] read?
A: The value was 80%.
